# Earlier results in patent US20070042008A1, “Compositions containing phosphatidylcholine and essential fatty acids” (BodyBio, Inc., priority 2005, published 2007).
# Conditions: oral
substance,measurement,setting,value
Phosphatidylcholine [PC],blood levels peak (time to peak),,8 to 12 h
same,"absorbed, taken orally","per 24 hrs, taken with meals",up to 90%
